Results as given in patent US10968457B2, “Drug-inducible promoter and method of inducting gene expression using the same” (TOYOTA JIDOSHA KABUSHIKI KAISHA, priority 2015, dated 2021).

Tests used:
[1] = tested on: drug-inducible promoters, tp1 and tp2; assay: Real-time PCR of RNA levels in recombinants carrying tp1 or tp2 expression vectors, with and without probenazole treatment; assay type: in vivo, sugarcane variety Q165; details: Recombinants 1 to 8; Oryzemate granules (8% probenazole), 20 g/4 liters of soil; leaves sampled 0, 7 and 14 days after treatment; FIG. 7
Protocol: In Example 2, transcription promoting activity of the two types of drug-inducible promoters, tp1 and tp2, isolated in Example 1 was examined in the presence and in the absence of probenazole.
With the use of the tp1-carrying expression vector and the tp2-carrying expression vector constructed in the manner described above, Recombinants 1 to 8 were prepared. Recombinants 1 to 7 were prepared with the use of the tp1-carrying expression vector, and Recombinant 8 was prepared with the use of the tp2-carrying expression vector.
Recombinants 1 to 8 prepared in the manner described above were treated with Oryzemate granules (8% probenazole, Meiji Seika Pharma Co., Ltd., 20 g/4 liters of soil), and leaves were sampled therefrom 0 days after drug treatment (i.e., immediately before the treatment), 7 days after drug treatment, and 14 days after drug treatment. The RNA levels of the recombinants were quantified using the AB17500 real-time PCR apparatus (Applied BioSystems) in accordance with the SYBR Green method. A comparative example shown in FIG. 7 concerns a recombinant prepared with the use of ecc0002-Hd3a-pIG121-Hm. The control example shown in FIG. 7 concerns the Q165 wild-type sugarcane variety.

sugarcane variety Q165 = assay: RNAseq expression analysis of leaves before and after probenazole treatment; assay type: in vivo; details: 8% Oryzemate granules, 20 g/4 liters of soil, about 60 days after planting, selected gene
Source text: In Example 1, at the outset, a sugarcane variety Q165 was subjected to drug treatment with probenazole (8% Oryzemate granules, Meiji Seika Pharma Co., Ltd., 20 g/4 liters of soil) approximately 60 days after it had been planted. The leaves that had expanded from the top were sampled before and after the treatment, and total RNA was extracted using the RNeasy Plant Mini Kit (QIAGEN).
Subsequently, the obtained total RNA was subjected to RNAseq expression analysis (Illumina HiSeq Sequencing, both-ends analysis), so as to obtain read data set. With the use of the assembler (Velvet version 1.2.08), the read data were reassembled into contig sequence information. The contig sequence information resulting from such reassembly was compared with each RNA sequence, and mapping data were obtained using a mapping program (Bowtie version 1.0.0). The resulting data were designated as the original data for RNAseq analysis.
On the basis of the EST sequence, two types of gene expression regulatory DNAs located in the 5′ upstream region of the selected gene were obtained by the Straight Walk method developed by BEX Co., Ltd. Such gene expression regulatory DNAs are drug-inducible promoters whose transcription activity is activated in the presence of a drug, such as probenazole. […]

`C=CCOC1=NS(=O)(=O)c2ccccc21` [probenazole] was tested, and the “degree of gene expression induction” value [1] was ≥ 3 times and the “increase in expression levels of EST sequence, drug treatment group versus non-treatment group” value (sugarcane variety Q165) was ≥ 100 fold.
